Data as given in patent publication US20070066594A1, “Crystalline forms fenoldopam mesylate” (priority 2005, published 2007).
Values belong to the molecule of their own block, whether it stands above or below them.

Legend:
Assay type in all cases: physicochemical
[1] = Stability under humid conditions: crystalline form by XRD after exposure to relative humidity
Description: (§1) X-Ray powder diffraction data were obtained by using methods known in the art with a SCINTAG powder X-Ray diffractometer model X'TRA equipped with a solid-state detector. The X-Ray radiation was copper radiation, having a wavelength of 1.5418 Å. A round aluminum sample holder with zero background was used for the measurements. All peak positions are within ±0.2° 2θ.
(§2) TGA analysis determined that this form has a water content of 7.8 percent by weight water.
Fenoldopam mesylate Type I was stored at 100 percent relative humidity for 8 days at room temperature. […]

[2] = Hygroscopicity: water content by TGA after exposure to relative humidity; conditions: for Water content (by TGA): Table 4
Description: The TGA analysis was performed with a Mettler M3 thermogravimeter with samples of about 8 mg and a scan rate of 10° C./min from 25° C. to 200° C., subtracting a blank from the sample. The TGA oven was constantly purged with nitrogen gas at a flow rate of 40 ml/min, and standard 150 μl alumina crucibles covered by lids with 1 hole were used.
as §2
Fenoldopam Type VI was produced when a mixture of about 50 mg of fenoldopam mesylate Type I, produced in Examples 2 and 4, was exposed to 0 percent relative humidity at room temperature for 8 days.

[3] = Stability on drying/heating at 80° under vacuum, crystalline form by XRD; conditions: dried 16 hours at 80° under vacuum; methanesulfonate
Description: as §1
An 81.5 gram sample of the product produce in Example 17 was dried for 16 hours at 80° under vacuum, providing a yield of 81.2 grams, having a water content of 0.05 percent by weight, and an isopropanol content of 1620 ppm. An XRD analysis confirmed the product sample was fenoldopam mesylate Type II.
A 4.08 gram sample of the product of Example 22 was dried at 80° C. under vacuum for 16 hours, providing a yield of 3.95 grams, having a water content of 0.02 percent by weight and a methanol content of 766 ppm. An XRD analysis confirmed the product sample was fenoldopam mesylate Type III.

[4] = 100 percent relative humidity, more than about 7 days, room temperature

Time the crystalline form is stable (remains as the Type I dihydrate) on exposure to relative humidity ([1]; 0 to 100% relative humidity): more than 5 days | Crystalline form (by XRD) ([1]; 20 % RH, 8 days, room temperature): Type I | Crystalline form (by XRD) ([1]; 40 % RH, 8 days, room temperature): Type I | Crystalline form (by XRD) ([1]; 60 % RH, 8 days, room temperature): Type I | Crystalline form (by XRD) ([1]; 80 % RH, 8 days, room temperature): Type I | Crystalline form (by XRD) ([1]; 100 % RH, 8 days, room temperature, methanesulfonate): remains fenoldopam mesylate Type I | Crystalline form (by XRD) ([1]; Table 4, 0 % RH, 8 days, room temperature): Type VI | Crystalline form (by XRD) ([1]; Table 4, 20 % RH, 8 days): Type I | Crystalline form (by XRD) ([1]; Table 4, 40 % RH, 8 days): Type I | Crystalline form (by XRD) ([1]; Table 4, 60 % RH, 8 days): Type I | Crystalline form (by XRD) ([1]; Table 4, 80 % RH, 8 days): Type I | Crystalline form (by XRD) ([1]; Table 4, initial): Type I | Crystalline form (by XRD) ([1]; initial sample): Type I | Water content (by TGA) ([2]; 0 % RH, 8 days, room temperature): 0.9 | Water content (by TGA) ([2]; 20 % RH, 8 days): 7.9 | Water content (by TGA) ([2]; 40 % RH, 8 days): 8.0 | Water content (by TGA) ([2]; 60 % RH, 8 days): 7.9 | Water content (by TGA) ([2]; 80 % RH, 8 days): 8.0 | Water content (by TGA) ([2]; initial): 8.0
SMILES: CS(=O)(=O)O.Oc1ccc(C2CNCCc3c2cc(O)c(O)c3Cl)cc1 (centres unmarked) [Type I, 6-chloro-2,3,4,5-tetrahydro-1-(4-hydroxyphenyl)-[1H]-3-benzazepine-7,8-diol methanesulfonate]

Crystalline form (by XRD) after drying [3]: Type II
SMILES: CS(=O)(=O)O.Oc1ccc(C2CNCCc3c2cc(O)c(O)c3Cl)cc1 (centres unmarked) [Type II, 6-chloro-2,3,4,5-tetrahydro-1-(4-hydroxyphenyl)-[1H]-3-benzazepine-7,8-diol methanesulfonate, reference compound]

Crystalline form (by XRD) ([1]; Table 3, 80 % RH, 8 days): Type III | Crystalline form (by XRD) ([1]; Table 3, 100 % RH, 8 days): Type III | Crystalline form (by XRD) ([1]; Table 3, initial sample): Type III | Crystalline form (by XRD) after drying [3]: Type III
SMILES: CS(=O)(=O)O.Oc1ccc(C2CNCCc3c2cc(O)c(O)c3Cl)cc1 (centres unmarked) [Type III, 6-chloro-2,3,4,5-tetrahydro-1-(4-hydroxyphenyl)-[1H]-3-benzazepine-7,8-diol methanesulfonate]

Crystalline form after humidity exposure (by PXRD) [1, 4]: transforms this form to Type I | Water content (by TGA) after humidity exposure [2, 4]: 7.8 percent by weight
SMILES: CS(=O)(=O)O.Oc1ccc(C2CNCCc3c2cc(O)c(O)c3Cl)cc1 (centres unmarked) [Type V, 6-chloro-2,3,4,5-tetrahydro-1-(4-hydroxyphenyl)-[1H]-3-benzazepine-7,8-diol methanesulfonate]
